{
  "source": "patent US20180037574A1",
  "about": "“COMPOUND, COMPOSITION, ORGANIC ELECTROLUMINESCENCE ELEMENT, AND ELECTRONIC DEVICE” (IDEMITSU KOSAN CO., LTD., priority 2015, published 2018)",
  "experiment": "Dissolution of host and dopant materials in toluene solution (visual check)",
  "type": "physicochemical",
  "conditions": "1.6-mass % toluene solution, host:dopant D-1 90:10 by mass, dissolved using ultrasonic waves, visually checked",
  "protocol": "The compound H-1 obtained in Synthesis Example 1 was used as a host material and the compound D-1 was used as a dopant material at a mixture ratio by mass of the compound H-1:the compound D-1 being 90:10 to prepare a 1.6-mass % toluene solution. The materials were dissolved using ultrasonic waves. […] The toluene solution was coated on the base substrate by spin coating to form a 50-nm thick film. After the film formation, an unnecessary portion was removed with toluene from the film. Subsequently, the film was heated and dried on a hot plate heated at 150 degrees C. to manufacture a coated laminate substrate on which an emitting layer was formed. It should be noted that all the operations for forming the emitting layer were conducted in a nitrogen-atmosphere glove box.\nIn Comparative 1, manufacturing of an organic EL device was attempted in the same manner as in Example 1 except that a comparative compound H-a was used in place of the compound H-1 as the host material. However, the materials were not dissolved in the toluene solution but whitened to be unable to prepare a solution, so that an organic EL device was not manufactured.",
  "data": [
    {"compound": "c1ccc(-c2ccc(-c3nc(-n4c5ccccc5c5cc(-n6c7ccccc7c7ccccc76)ccc54)nc(-n4c5ccccc5c5cc(-n6c7ccccc7c7ccccc76)ccc54)n3)cc2)cc1", "note": "[H-a]", "values": [
      {"measurement": "solubility in toluene solution", "result": "not dissolved"}
    ]}
  ]
}
